Key:
Assay type in all cases: in vivo
Echinochloa crus-galli [1] = assay: Test Example 11: herbicidal effect test by soil treatment in paddy field; details: 120 g/10a active ingredient, 14 days after treatment
Summary of the method: (§1)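 Weed suppression rate (%) was calculated as (1 − mean treated dry weight / mean untreated dry weight) × 100 at 14 days after treatment, two replicates per plot. Seeds were sown at 0–1 cm in flooded (about 3 cm) puddled paddy soil and treated immediately at 120 g active ingredient per 10 are.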

Lindernia pyxidaria [2] = assay: as above; details: 120 g/10a active ingredient, 14 days after treatment
Summary of the method: as §1

Monochoria vaginalis [3] = assay: as above; details: 120 g/10a active ingredient, 14 days after treatment
Summary of the method: as §1

Scirpus juncoides [4] = assay: as above; details: 120 g/10a active ingredient, 14 days after treatment
Summary of the method: as §1

Echinochloa crus-galli [5] = assay: Test Example 12: herbicidal effect test by treatment during growing period in paddy field; details: 120 g/10a; treatment seven days after sowing in flooded paddy pot; assessed 14 days after treatment
Summary of the method: (§2)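 Read-out: weed suppression (%) = (1 − treated/untreated mean dry weight) × 100, scored 14 days after treatment with two replications. Pots held puddled paddy soil, 30 seeds per species sown 0–1 cm, flooded ~3 cm. Post-emergence dropwise water application at 7 days after sowing, 120 g a.i./10 are.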

Lindernia pyxidaria [6] = assay: as above; details: 120 g/10a; treatment seven days after sowing in flooded paddy pot; assessed 14 days after treatment
Summary of the method: as §2

Monochoria vaginalis [7] = assay: as above; details: 120 g/10a; treatment seven days after sowing in flooded paddy pot; assessed 14 days after treatment
Summary of the method: as §2

Scirpus juncoides [8] = assay: as above; details: 120 g/10a; treatment seven days after sowing in flooded paddy pot; assessed 14 days after treatment
Summary of the method: as §2

Row | SMILES | Weed suppression rate (%) Echinochloa crus-galli (Echinochloa crus-galli [1]) | Weed suppression rate (%) Lindemia pyxidaria (Lindernia pyxidaria [2]) | Weed suppression rate (%) Monochoria vaginalis (Monochoria vaginalis [3]) | Weed suppression rate (%) Scirpus juncoides (Scirpus juncoides [4]) | Weed suppression rate (%) Echinochloa crus-galli (Echinochloa crus-galli [5]) | Weed suppression rate (%) Lindemia pyxidaria (Lindernia pyxidaria [6]) | Weed suppression rate (%) Monochoria vaginalis (Monochoria vaginalis [7]) | Weed suppression rate (%) Scirpus juncoides (Scirpus juncoides [8])
1 | Cc1ccc(S(=O)(=O)n2ncn(C(=O)N(c3ccccc3F)C(C)C)c2=O)cc1 [Compound 11-627] | 90% | 80% | 80% | 90% | 90% | 80% | 80% | 90%
2 | Cc1ccc(S(=O)(=O)n2ncn(C(=O)N(c3cccc(F)c3)C(C)C)c2=O)cc1 [Compound 11-628] | 90% | 80% | 80% | 90% | 90% | 80% | 80% | 90%
3 | Cc1ccc(S(=O)(=O)n2ncn(C(=O)N(c3cccc(F)c3F)C(C)C)c2=O)cc1 [Compound 11-636] | 100% | 100% | 100% | 90% | 100% | 80% | 100% | 100%
4 | Cc1ccc(S(=O)(=O)n2ncn(C(=O)N(c3c(F)cccc3F)C(C)C)c2=O)cc1 [Compound 11-639] | 100% | 100% | 70% | 100% | 100% | 70% | 70% | 70%
5 | Cc1ccc(S(=O)(=O)n2ncn(C(=O)N(c3ccc(F)c(F)c3F)C(C)C)c2=O)cc1 [Compound 11-640] | 100% | 100% | 70% | 90% | 80% | 70% | 100% | 90%
6 | Cc1ccc(S(=O)(=O)n2ncn(C(=O)N(c3c(F)c(F)cc(F)c3F)C(C)C)c2=O)cc1 [Compound 11-642] | 100% | 80% | 70% | 70% | 100% | 70% | 90% | 100%
7 | Cc1ccc(S(=O)(=O)n2ncn(C(=O)N(c3ccc(Cl)cc3F)C(C)C)c2=O)cc1 [Compound 11-645] | 100% | 90% | 90% | 90% | 60% | 90% | 90% | 60%
8 | Cc1ccc(S(=O)(=O)n2ncn(C(=O)N(c3ccc(C)cc3F)C(C)C)c2=O)cc1 [Compound 11-651] | 90% | 90% | 90% | 90% | 90% | 80% | 80% | 90%
9 | CC(C)N(C(=O)n1cnn(S(=O)(=O)c2ccc(C(C)(C)C)cc2)c1=O)c1ccccc1F [Compound 11-672] | 90% | 80% | 80% | 90% | 90% | 80% | 80% | 90%
10 | CC(C)N(C(=O)n1cnn(S(=O)(=O)c2ccc(C(C)(C)C)cc2)c1=O)c1cccc(F)c1F [Compound 11-681] | 100% | 90% | 80% | 100% | 100% | 90% | 100% | 100%
11 | CC(C)N(C(=O)n1cnn(S(=O)(=O)c2ccc(C(C)(C)C)cc2)c1=O)c1ccc(F)c(F)c1F [Compound 11-685] | 90% | 100% | 100% | 60% | 80% | 60% | 70% | 60%
12 | CC(C)N(C(=O)n1cnn(S(=O)(=O)c2ccc(C(C)(C)C)cc2)c1=O)c1c(F)c(F)cc(F)c1F [Compound 11-687] | 80% | 100% | 100% | 90% | 100% | 70% | 80% | 70%
13 | CC(C)N(C(=O)n1cnn(S(=O)(=O)c2ccc(C(C)(C)C)cc2)c1=O)c1ccc(F)cc1Cl [Compound 11-689] | 90% | 90% | 70% | 70% | 60% | 70% | 80% | 90%
14 | CC(C)N(C(=O)n1cnn(S(=O)(=O)c2ccc(C(C)(C)C)cc2)c1=O)c1ccc(Cl)cc1Br [Compound 11-694] | 90% | 80% | 70% | 70% | 70% | 60% | 70% | 80%
15 | Cc1ccc(N(C(=O)n2cnn(S(=O)(=O)c3ccc(C(C)(C)C)cc3)c2=O)C(C)C)c(F)c1 [Compound 11-696] | 90% | 80% | 80% | 90% | 90% | 80% | 80% | 90%
16 | Cc1ccc(N(C(=O)n2cnn(S(=O)(=O)c3cccc(C(F)(F)F)c3)c2=O)C(C)C)c(F)c1 [Compound 11-737] | 90% | 80% | 80% | 90% | 90% | 80% | 80% | 90%
17 | CC(C)N(C(=O)n1cnn(S(=O)(=O)c2c(F)cccc2F)c1=O)c1cccc(F)c1F [Compound 11-772] | 100% | 90% | 80% | 80% | 100% | 70% | 90% | 90%
18 | CC(C)N(C(=O)n1cnn(S(=O)(=O)c2c(F)cccc2F)c1=O)c1c(F)cc(F)cc1F [Compound 11-777] | 100% | 90% | 80% | 100% | 90% | 70% | 80% | 70%
19 | CC(C)N(C(=O)n1cnn(S(=O)(=O)c2c(F)c(F)c(F)c(F)c2F)c1=O)c1ccccc1F [Compound 11-801] | 90% | 90% | 90% | 90% | 90% | 60% | 80% | 60%

Source: patent publication US11076595B2, “1-(n,n-disubstituted carbamoyl) 4-(substituted sulfonyl)triazolin-5-one derivative, 4-(n,n-disubstituted carbamoyl) 1-(substituted sulfonyl)triazolin-5-one derivative, and herbicide containing said derivative as active ingredient” (HOKKO CHEMICAL INDUSTRY CO., LTD., priority 2017, dated 2021)
